Source: patent publication US10975063B2, “Compound, and production method thereof, and methods of treatment using the compound” (ABIVAX, priority 2009, dated 2021)

Assays:
HIV-1 = test: Inhibition of HIV-1 production (p24 antigen) in infected peripheral blood mononuclear cells (PBMCs); format: cell-based, HIV-1 (AdaM) in PBMCs of healthy donors; conditions: for Inhibition of p24 production in HIV infected PBMCs from different donors: tested molecules at 10 μM, p24 after 3 and 6 days of infection, number of donors with inhibition out of donors tested
Procedure: Within this framework, the peripheral blood mononuclear cells (PBMCs) of healthy donors are isolated by centrifugation on a FICOLL gradient. The cells are then cultivated to a density of 2.5×10^6 cells/ml with RPMI medium supplemented with 1% inactivated human AB serum, then incubated at 37° C., 5% CO2 for an additional hour. The peripheral blood mononuclear cells are then recovered and cultivated for two days in RPMI medium supplemented with 10% fetal calf serum.
A standard experiment using 96 plates to test 30 molecules in triplicates including positive and negative controls, is performed as follows:
50 10^6 Ficoll purified PBMCs (10% DMSO 90% FCS) are washed with RPMI 10% FCS and resuspended in 25 ml of RPMI 10% FCS, glutamax containing 1000 U/ml of IL2 and 5 μg/ml PHA. The cells are then incubated for 3 days at 37° C. before to be washed with 50 ml PBS then with 50 ml RPMI 10% FCS. The cells are resuspended in 100 μl of RPMI 10% FCS containing 100 U/ml IL2 and seeded in 96 wells (1.5 10^5 cells/well). Viral infection is performed with 1 ng of AdaM/well. 100 μl of tested molecules at concentration of 10 μM are added to each well. Virus production is determined by p24 antigen immunosorbent assays after 3 and 6 days of infection (Kit Innogenetics). Typically PBMCs are prepared from several healthy donors (around 11 different donors). Dose response curves were then established with selected compounds to determine IC50.

[1] = tested on: LMNA aberrant splicing (MutLMNA-luc cell line); test: Luciferase assay for repression of LMNA aberrant splicing in stable 293 MutLMNA-luc cell line (293FLP LMNA LUC cells #8); format: cell-based; conditions: 48 hours, compared to control untreated MutLMNA-luc cell line, read-out: Increase of luciferase activity
Description: Advantage has been taken of the luciferase system. The luciferase assay is an extremely sensitive and rapid assay. Linear results are seen over at least eight orders of magnitude of enzyme concentration. Moreover, the luciferase assay is well suited for high-throughput applications. To conduct a Mid-throughput screening (MTS) for compounds repressing LMNA aberrant splicing, we have constructed a plasmid in which exon 11, intron 11 and part of exon 12 of LMNA gene were fused with luciferase cDNA (FIG. 2). Both wild type (WtLMNA-luc)(SEQ ID NO: 1) and mutant (MutLMNA-luc)(SEQ ID NO: 2) substrate harbouring exon 11 mutation have been constructed. In these constructs we have generated a single initiation codon in exon 11 such as correct splicing will lead to luciferase expression, while aberrant splicing will skip the initiation codon and thereby prevent luciferase expression. After transfection in HeLa cells, Luciferase assays (FIG. 2B) and RT-PCR (FIG. 2C) indicate that WtLMNA-luc produces predominantly wild type splicing and large amount of luciferase activity, whereas MutLMNA-luc recapitulate the aberrant splicing profile with reduced luciferase expression (FIGS. 2 B and C, compare Wt and Mut). In order to use this system in MTS, we have generated a stable 293 cell lines containing a single integrated copy of luciferase reporter containing LMNA mutation (MutLMNA-luc cell line) using the flp system from INVITROGEN. This system allows us to perform a MTS for compounds able to enhance luciferase activity.
LMNA sequences (1278 bp of exon 11, intron 11 and 46 bp of […]) were PCR-amplified from either control or patient's cells genomic DNA with specific primer PCR fragments were purified with Concert Rapid PCR purification system (Invitrogen) and subcloned at the BamHI and EcoRI restriction sites of the pSppβm3 S1 plasmid containing the βGlobin cassette (Labourier et al., 1999—Recognition of exonic splicing enhancer sequences by the Drosophila splicing repressor RSF1. Nucleic Acids Res. 27, 2377-2386) to give the βGlo3S1LMNAwt and βGlo3S1LMNAmut constructs. The chimeric (3Glo-LMNA sequences were then inserted into the pcDNA3.1D/V5-His-TOPO vector (Invitrogen) to be used in transfection and in vitro splicing experiments. A single initiation codon ATG was kept in exon 11 of LMNA and LMNA sequences described above were fused at their 3′ end to Fyrefly luciferase cDNA (LMNAlucWT) in order that removal of intron 11 generates a transcript that encode a fusion protein harbouring luciferase activity, whereas usage of the cryptic splice site of mutated exon 11 (LMNAlucMut) will remove the initiation codon preventing luciferase expression. Both sequences were cloned in pcDNA3 Flp-In vector (Invitrogen).
A stable 293 cell line containing a single copy of LMNAlucMut minigene was obtained using the Flp-In system from (Invitrogen) according to manufacture procedure. Several clones were obtained and only one clone was used to screen the whole chemical library (293FLP LMNA LUC cells #8).
In a 96 Well Plate sterile, V-shape one put […] of drug compounds at 50 mM and then add 49.5 μl of 10% DMSO.
One pipets […] of drug at 500 μM and adds 200 μL of DMEM+Hygromycin B. At this stage the concentration of drug compound is 10 μM. One shares out 100 μl in a 96 Well Microplate sterile, flat bottom (further called luciferase plate) and 50 μl in other one (further called toxicity plate).
One washes 293FLP LMNA LUC cells once with D-PBS then adds 1 ml trypsin EDTA. Incubation at 37° C. for 2-3 minutes is proceeded. Then one adds 9 ml DMEM (with 10% FCS, P/S).
Cell concentration is brought at 10^5 cells per ml with DMEM+Hygromycin B to have 10^4 cells per 100 μl.
100 μl of suspension cells is added (at 10^4 cells per 100 μl) so final concentration of compounds is […].
Medium of the wells is gently removed then washed once by adding slowly 150 μl of D-PBS 1×. D-PBS is removed. 40 μl of PLB 1× is added and incubated at RT for 30 minutes. […]

| SMILES | Inhibition of p24 production in HIV infected PBMCs from different donors (HIV-1) | fold induction at 5 µM [1] | IC50 (HIV-1; Human immunodeficiency virus 1, PBMC, p24 production in HIV infected PBMCs, dose response curves) [nM] |
| --- | --- | --- | --- |
| Cc1cccc(Nc2cc(C)c3ccccc3n2)n1 [Compound 45, 4-methyl-N-(6-methylpyridin-2-yl)quinolin-2-amine] | 4 out of 4 donnors | 3.08 |  |
| O=[N+]([O-])c1cccnc1Nc1cnc2ccccc2c1 [Compound 106, N-(3-nitropyridin-2-yl)quinolin-3-amine] | 6 out of 6 donnors | 2.77 | 0.5 |
| Clc1ccc2nc(Nc3cnccn3)ccc2c1 [Compound 109, 6-chloro-N-(pyrazin-2-yl)quinolin-2-amine] | 8 out of 8 donnors | 2.79 |  |
| Cc1ccnc(Nc2cnc3ccccc3n2)c1 [Compound 136, N-(4-methylpyridin-2-yl)quinoxalin-2-amine] | 6 out of 8 donnors | 5.2 |  |
| Cc1cc(OC(F)(F)F)ccc1Nc1ccc2ccccc2n1 [Compound 82, N-[2-methyl-4-(trifluoromethoxy)phenyl]quinolin-2-amine] | 4 out of 4 donnors | 3.41 |  |
| Fc1cccc(Nc2ccc3ccccc3n2)c1 [Compound 86, N-(3-fluorophenyl)quinolin-2-amine] | 3 out of 4 donnors | 2.77 |  |
